Source: patent US20080207708A1, “Oxazole and Thiazole Compounds and Their Use in the Treatment of Pge2 Mediated Disorders” (GLAXO GROUP LIMITED, priority 2005, published 2008)
Structures can show the parent of a compound that is named as a salt.

target: T1, EP1 receptors (Homo sapiens, UniProt P34995); assay: Binding assay for the human prostanoid EP1 receptor (competition with [3H]-PGE2); set-up: expressed in transfected cells; host or cells: CHO-K1 cells, membrane fraction; conditions: [3H]-PGE2 competition; averages of a number of experiments; read-out: pIC50 value, binding assay for the human prostanoid EP1 receptor (converted)
T1 sequence (P34995 1-402): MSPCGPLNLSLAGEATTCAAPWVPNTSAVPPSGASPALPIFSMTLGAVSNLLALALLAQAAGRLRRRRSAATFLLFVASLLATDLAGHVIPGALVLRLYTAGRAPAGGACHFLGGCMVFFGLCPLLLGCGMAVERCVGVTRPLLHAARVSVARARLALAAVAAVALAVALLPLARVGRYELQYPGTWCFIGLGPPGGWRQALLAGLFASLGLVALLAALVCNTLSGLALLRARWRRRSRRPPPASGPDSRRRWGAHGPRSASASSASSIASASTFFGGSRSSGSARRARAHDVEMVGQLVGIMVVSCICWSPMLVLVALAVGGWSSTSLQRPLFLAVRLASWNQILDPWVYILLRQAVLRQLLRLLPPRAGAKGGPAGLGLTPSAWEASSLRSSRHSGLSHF
Procedure: Competition assay using [^3H]-PGE2.
Compound potencies are determined using a radioligand binding assay. In this assay compound potencies are determined from their ability to compete with tritiated prostaglandin E2 ([^3H]-PGE2) for binding to the human EP1 receptor.
This assay utilises Chinese hamster ovary-K1 (CHO-K1) cells into which a stable vector containing the EP1 cDNA has previously been transfected. Cells are cultured in suitable flasks containing culture medium such as DMEM:F-12 supplemented with 10% v/v foetal calf serum, 2 mM L-glutamine, 0.25 mg/ml geneticin, 10 μg/ml puromycin and 10 μM indomethacin.
Cells are detached from the culture flasks by incubation in calcium and magnesium free phosphate buffered saline containing 1 mM disodium ethylenediaminetetraacetic acid (Na2EDTA) and 10 μM indomethacin for 5 min. The cells are isolated by centrifugation at 250×g for 5mins and suspended in an ice cold buffer such as 50 mM Tris, 1 mM Na2EDTA, 140 mM NaCl, 10 μM indomethacin (pH 7.4). The cells are homogenised using a Polytron tissue disrupter (2×10 s burst at full setting), centrifuged at 48,000×g for 20mins and the pellet containing the membrane fraction is washed (optional) three times by suspension and centrifugation at 48,000×g for 20mins. The final membrane pellet is suspended in an assay buffer such as 10 mM 2-[N-morpholino]ethanesulphonic acid, 1 mM Na2EDTA, 10 mM MgCl2 (pH 6). Aliquots are frozen at […] until required.
For the binding assay the cell membranes, competing compounds and [^3H]-PGE2 (3 nM final assay concentration) are incubated in a final volume of 100 μl for 30 min at 30° C. All reagents are prepared in assay buffer. Reactions are terminated by rapid vacuum filtration over GF/B filters using a Brandell cell harvester. The filters are washed with ice cold assay buffer, dried and the radioactivity retained on the filters is measured by liquid scintillation counting in Packard TopCount scintillation counter.
The data are analysed using non linear curve fitting techniques to determine the concentration of compound producing 50% inhibition of specific binding (IC50).

`CC(C)COc1ccc(Cl)cc1Cc1nc(-c2nc3ccccc3[nH]2)co1` [Example 162, 2-[2-({5-Chloro-2-[(2-methylpropyl)oxy]phenyl}methyl)-1,3-oxazol-4-yl]-1H-benzimidazole hydrochloride] and `Clc1ccc(OCc2ccccc2)c(Cc2nc(-c3nc4ccc(Cl)nc4[nH]3)cs2)c1` [Example 138, 5-Chloro-2-[2-({5-chloro-2-[(phenylmethyl)oxy]phenyl}methyl)-1,3-thiazol-4-yl]-1H-imidazo[4,5-b]pyridinehydrochloride] cannot be ordered by IC50: at most 31.6 nM for the first, at most 31.6 nM for the second.

`O=C(O)Cc1csc(-c2cc(Cl)ccc2OCc2cc(F)c(F)c(F)c2)n1` [Example 69, Sodium [2-(5-chloro-2-{[(3,4,5-trifluorophenyl)methyl]oxy}phenyl)-1,3-thiazol-4-yl]acetate] and `O=C(O)c1csc(Cc2cc(Cl)ccc2OCc2cc(F)c(F)c(F)c2)n1` [Example 21, Sodium 2-[(5-chloro-2-{[(3,4,5-trifluorophenyl)methyl]oxy}phenyl)methyl]-1,3-thiazole-4-carboxylate] cannot be ordered by IC50: at most 1000 nM for the first, at most 1000 nM for the second.

`O=C(O)Cc1csc(-c2cc(Cl)ccc2OCc2ccccc2F)n1` [Example 62, Sodium [2-(5-chloro-2-{[(2-fluorophenyl)methyl]oxy}phenyl)-1,3-thiazol-4-yl]acetate] and `O=C(O)Cc1csc(-c2cc(Cl)ccc2OCc2ccccc2Cl)n1` [Example 70, Sodium [2-(5-chloro-2-{[(2-chlorophenyl)methyl]oxy}phenyl)-1,3-thiazol-4-yl]acetate] cannot be ordered by IC50: at most 1000 nM for the first, at most 1000 nM for the second.

`O=C(O)c1csc(Cc2cc(C(F)(F)F)ccc2OCC2CCCCC2)n1` [Example 42, Sodium 2-{[2-[(cyclohexylmethyl)oxy]-5-(trifluoromethyl)phenyl]methyl}-1,3-thiazole-4-carboxylate] and `CCCCOc1ccc(C(F)(F)F)cc1Cc1nc(C(=O)O)cs1` [Example 38, Sodium 2-{[2-(butyloxy)-5-(trifluoromethyl)phenyl]methyl}-1,3-thiazole-4-carboxylate] cannot be ordered by IC50: at most 1000 nM for the first, at most 1000 nM for the second.

`O=C(O)c1csc(Cc2cc(Cl)ccc2OCc2ccccc2Cl)n1` [Example 15, 2-[(5-chloro-2-{[(2-chlorophenyl)methyl]oxy}phenyl)methyl]-1,3-thiazole-4-carboxylicacid] and `O=C(O)c1csc(Cc2cc(Cl)ccc2OCc2ccccc2F)n1` [Example 10, 2-[(5-chloro-2-{[(2-fluorophenyl)methyl]oxy}phenyl)methyl]-1,3-thiazole-4-carboxylicacid] cannot be ordered by IC50: at most 31.6 nM for the first, at most 31.6 nM for the second.

`O=C(O)c1nc(Cc2cc(Cl)ccc2OCc2ccccc2Cl)cs1` [Example 83, Sodium 4-[(5-chloro-2-{[(2-chlorophenyl)methyl]oxy}phenyl)methyl]-1,3-thiazole-2-carboxylate] and `O=C(O)c1nc(Cc2cc(Cl)ccc2OCc2ccccc2F)cs1` [Example 84, Sodium 4-[(5-chloro-2-{[(2-fluorophenyl)methyl]oxy}-phenyl)methyl]-1,3-thiazole-2-carboxylate] cannot be ordered by IC50: at most 31.6 nM for the first, at most 31.6 nM for the second.

`O=C(O)c1csc(Cc2cc(Cl)ccc2OCc2ccc(F)cc2Cl)n1` [Example 14, 2-[(5-chloro-2-{[(2-chloro-4-fluorophenyl)methyl]oxy}phenyl)methyl]-1,3-thiazole-4-carboxylicacid] and `O=C(O)c1csc(Cc2cc(Cl)ccc2OCc2ccc(F)cc2F)n1` [Example 16, 2-[(5-chloro-2-{[(2,4-difluorophenyl)methyl]oxy}phenyl)methyl]-1,3-thiazole-4-carboxylicacid] cannot be ordered by IC50: at most 31.6 nM for the first, at most 31.6 nM for the second.

`O=C(O)c1csc(Cc2cc(Cl)ccc2OCc2c(F)cc(F)cc2F)n1` [Example 13, 2-[(5-chloro-2-{[(2,4,6-trifluorophenyl)methyl]oxy}phenyl)methyl]-1,3-thiazole-4-carboxylicacid] and `O=C(O)c1csc(Cc2cc(Cl)ccc2OCc2ccc(Cl)cc2)n1` [Example 11, 2-[(5-chloro-2-{[(4-chlorophenyl)methyl]oxy}phenyl)methyl]-1,3-thiazole-4-carboxylicacid] cannot be ordered by IC50: at most 31.6 nM for the first, at most 31.6 nM for the second.

`NC(=O)c1nc(Cc2cc(Cl)ccc2OCc2cc(F)c(F)cc2F)cs1` [Example 8, 4-[(5-chloro-2-{[(2,4,5-trifluorophenyl)methyl]oxy}phenyl)methyl]-1,3-thiazole-2-carboxamide] and `O=C(O)c1nc(Cc2cc(Cl)ccc2OCc2cc(F)c(F)cc2F)cs1` [Example 89, Sodium 4-[(5-chloro-2-{[(2,4,5-trifluorophenyl)methyl]-oxy}phenyl)methyl]-1,3-thiazole-2-carboxylate] cannot be ordered by IC50: at most 1000 nM for the first, at most 31.6 nM for the second.

`O=C(O)Cc1csc(-c2cc(Cl)ccc2OCc2ccc(Cl)cc2)n1` [Example 71, Sodium [2-(5-chloro-2-{[(4-chlorophenyl)methyl]oxy}phenyl)-1,3-thiazol-4-yl]acetate] and `O=C(O)Cc1csc(-c2cc(Cl)ccc2OCc2ccc(F)cc2Cl)n1` [Example 66, Sodium [2-(5-chloro-2-{[(2-chloro-4-fluorophenyl)methyl]oxy}phenyl)-1,3-thiazol-4-yl]acetate] cannot be ordered by IC50: at most 31.6 nM for the first, at most 1000 nM for the second.

`O=C(O)c1csc(Cc2cc(Br)ccc2OCc2ccccc2F)n1` [Example 51, Sodium 2-[(5-bromo-2-{[(2-fluorophenyl)methyl]oxy}phenyl)methyl]-1,3-thiazole-4-carboxylate] and `O=C(O)c1csc(Cc2cc(Br)ccc2OCc2ccccc2)n1` [Example 57, Sodium 2-({5-bromo-2-[(phenylmethyl)oxy]phenyl}methyl)-1,3-thiazole-4-carboxylate] cannot be ordered by IC50: at most 31.6 nM for the first, at most 31.6 nM for the second.

`O=C(O)c1csc(Cc2cc(C(F)(F)F)ccc2OCc2ccc(F)cc2)n1` [Example 25, Sodium 2-{[2-{[(4-fluorophenyl)methyl]oxy}-5-(trifluoromethyl)phenyl]methyl}-1,3-thiazole-4-carboxylate] and `O=C(O)c1csc(Cc2cc(Br)ccc2OCc2ccc(F)cc2)n1` [Example 52, Sodium 2-[(5-bromo-2-{[(4-fluorophenyl)methyl]oxy}phenyl)methyl]-1,3-thiazole-4-carboxylate] cannot be ordered by IC50: at most 1000 nM for the first, at most 31.6 nM for the second.

`O=C(O)c1csc(Cc2cc(C(F)(F)F)ccc2OCc2ccc(F)c(F)c2F)n1` [Example 35, Sodium 2-{[5-(trifluoromethyl)-2-{[(2,3,4-trifluorophenyl)methyl]oxy}phenyl)methyl]-1,3-thiazole-4-carboxylate] and `O=C(O)c1csc(Cc2cc(C(F)(F)F)ccc2OCc2ccccc2Cl)n1` [Example 30, Sodium 2-{[2-{[(2-chlorophenyl)methyl]oxy}-5-(trifluoromethyl)phenyl]methyl}-1,3-thiazole-4-carboxylate] cannot be ordered by IC50: at most 1000 nM for the first, at most 31.6 nM for the second.

`CCCCCOc1ccc(C(F)(F)F)cc1Cc1nc(C(=O)O)cs1` [Example 40, Sodium 2-{[2-(pentyloxy)-5-(trifluoromethyl)phenyl]methyl}-1,3-thiazole-4-carboxylate] and `O=C(O)c1nc(Cc2cc(Cl)ccc2OCc2c(F)ccc(F)c2F)cs1` [Example 88, Sodium 4-[(5-chloro-2-{[(2,3,6-trifluorophenyl)methyl]-oxy}phenyl)methyl]-1,3-thiazole-2-carboxylate] cannot be ordered by IC50: at most 1000 nM for the first, at most 1000 nM for the second.

`O=C(NS(=O)(=O)c1ccccc1)c1csc(Cc2cc(Cl)ccc2OCc2ccccc2)n1` [Example 100, 2-({5-Chloro-2-[(phenylmethyl)oxy]phenyl}methyl)-N-(phenylsulfonyl)-1,3-thiazole-4-carboxamide] was tested, and the IC50 was at most 31.6 nM.
